Values quoted from earlier work in patent US20180148480A1, “[…] ENHANCEMENT OF THE T-CELL ARM[…] AN ANTI-CANCER THERAPY” (THE JOHNS HOPKINS UNIVERSITY, priority 2015, published 2018).

Tests used:
[1] = test system: LNCaP
[2] = test system: PC3
[3] = test system: DU145
[4] = test system: LAPC-4
[5] = test system: CWR22Rv1
[6] = test system: TSU (bladder)
[7] = test system: SN12C (renal)
[8] = test system: TT (thyroid)
[9] = test system: animals; conditions: single intravenous dose; kills 100% of animals within 24 hrs

## wild-type PA
[1]
  LD50 concentration: ≤ 50 pM
[2]
  LD50 concentration: ≤ 50 pM
[3]
  LD50 concentration: ≤ 50 pM
[4]
  LD50 concentration: ≤ 50 pM
[5]
  LD50 concentration: ≤ 50 pM
[6]
  LD50 concentration: ≤ 50 pM
[7]
  LD50 concentration: ≤ 50 pM
[8]
  LD50 concentration: ≤ 50 pM
[9]
  LD100: 0.1 µg
